Test results as given in patent US20130316998A1, “METHOD FOR TREATING PANCREATIC CANCER” (Niiki Pharma Acquisition Corp. 2, priority 2010, published 2013).

Tests used:
[1] = tested on: PANC-1 cells; details: Guo et al. 2009; Durkin et al. 2003; cited from earlier work
[2] = tested on: advanced-stage pancreatic cancer; details: erlotinib in combination with gemcitabine; Moore et al. 2007; cited from earlier work
[3] = tested on: PANC-1 cell line; assay: ATCC's MTT Cell Proliferation Assay, PANC-1; assay type: cell-based, human
Protocol: (§1) To test the activities of tris(8-quinolinolato)gallium(III), ATCC's MTT Cell Proliferation Assay® was performed using human pancreatic cancer cell lines PANC-1, BxPC-3, and Capan-1. Stock cultures were allowed to grow to 70-80% confluence for this study. The anti-proliferative activity of tris(8-quinolinolato)gallium(III), against the indicated cell lines was evaluated in vitro using the ATCC's MTT Cell Proliferation Assay (Catalog No. 30-1010K). PANC-1 was grown using DMEM, 10% fetal bovine serum (FBS), 1% of pen/strep/glutamine (PSG) and was seeded with 6E+03 cells/well. […] The plates were left overnight at room temperature in the dark and was read on a plate reader using SoftMax® Pro (version 5.2, Molecular Devices).
(§2) The absorbance data was analyzed as follows: Absorbance values were converted to Percent of Control and plotted against test agent concentrations for IC50 calculations using SoftMax® Pro (version 5.2, Molecular Devices). […] Percent of Control values were calculated by dividing the absorbance values for each test well by the No Drug Control average (column 11 values; cells+vehicle control) and multiplying by 100. Plots of Compound Concentration versus Percent of Control were analyzed using the 4-parameter equation to obtain IC50 values and other parameters that describe the sigmoidal dose response curve. […]

[4] = tested on: Capan-1 cell line; assay: ATCC's MTT Cell Proliferation Assay, Capan-1; assay type: cell-based, human; details: Capan-1, 72 hours post-treatment
Protocol: as §1, §2

[5] = tested on: pancreatic tumor cell line MIA PaCa2; assay: MTT assay in 3-dimentional tumor model (HuBiogel) derived from MIA PaCa2; assay type: cell-based; details: 3-D HuBiogel tumor beads
Protocol: (§3) The compound tris(8-quinolinolato)gallium(III) was tested in a 3-dimentional tumor model derived from pancreatic tumor cell line MIA PaCa2. Specifically, cells were trypsinized, washed, counted by trypan blue exclusion. Tumor beads were then prepared by mixing 20,000 cells/100 of HuBiogel (4 mg/mL) (See U.S. patent application Ser. No. 10/546,506, which is incorporated herein by reference). The 3-D tumor beads were cultivated for 72 hours in multi-well plates with complete media (10% FBS) in a 37° C. incubator +5% CO2. Mini-tumors were treated with various concentrations of the test compound tris(8-quinolinolato)gallium(III) in media (final 0.2-0.3% DMSO) or control (DMSO). Repeated drug treatment was done by removing the culture media and replacing with fresh media with drug compound or DMSO. On Day 3, MTT assay and live-cell staining with Calcein AM were performed (5 beads/assay set).
(§4) Statistical analysis of data sets (Average, T-test, GI-50) was performed using MS-Excel program. The average GI-50 (the drug concentration required for growth inhibition at 50%) is […].

[6] = tested on: pancreatic tumor cell line MIA PaCa2; assay: live-cell staining with Calcein AM / image analysis in 3-D tumor beads; assay type: cell-based; details: 3-D HuBiogel tumor beads, Day 3
Protocol: as §3, §4

[7] = tested on: BxPC-3 cell line; assay: ATCC's MTT Cell Proliferation Assay, BxPC-3; assay type: cell-based, human; details: BxPC-3, 72 hours post-treatment
Protocol: as §1, §2

SMILES | resistance of PANC-1 cells to the drug [1] | median overall survival benefit [2] | activity in pancreatic cancer cells resistant to gemcitabine and/or erlotinib ([3]; PANC-1) | IC50 ([3]; PANC-1, 72 hours post-treatment, MTT) [µM] | IC50 [4] [µM] | GI50 ([5]; MTT assay on Day 3, read-out: average GI-50 (the drug concentration required for growth inhibition at 50%)) [µM] | tumor proliferation activity ([5]; MTT assay, FIG. 1) | tumor killing in live-cell staining/image analysis [6] | IC50 [7] [µM]
C#Cc1cccc(Nc2ncnc3cc(OCCOC)c(OCCOC)cc23)c1 [erlotinib] | resistant | less than four weeks |  |  |  |  |  |  | 
Nc1ccn([C@@H]2O[C@H](CO)[C@@H](O)C2(F)F)c(=O)n1 [gemcitabine] | resistant |  |  |  |  |  |  |  | 
[Ga+3].[O-]c1cccc2cccnc12.[O-]c1cccc2cccnc12.[O-]c1cccc2cccnc12 [tris(8-quinolinolato)gallium(III)] |  |  | active | 1.03 | 8.17 | 35.7 | significantly inhibited tumor proliferation activity | dose-dependent tumor killing | 0.0032
